pKi: −log10 of the molar value.
target: cyclic AMP phosphodierterase; assay: cyclic AMP phosphodiesterase activity in rat gastrocnemius muscle homogenates (Dixon plot); format: biochemical; conditions: compounds of formula (I); homogenates of rat gastocnemius muscle; 0.31 uM cyclic AMP as substrate; Dixon plot extrapolation; read-out: Apparent Ki value.
Description: The activity of cyclic AMP phosphodierterase in homogenates of rat gastocnemius muscle was measured in the presence of various concentrations of compounds of formulae (I), (II), (III), (IV) or (V) using 0.31 uM cyclic AMP as substration. The reciprocal of the reaction rate was plotted on the y axis against the concentration of each compound on the x axis (Dixon plot). The apparent Ki value was estimated by extrapolating the steeper linear portion of the Dixon plot to the x axis and obtaining the negative intercept on the x axis.

pKi	Structure (SMILES)
4.85	CCCCn1c(=O)c2c(ncn2CCCCC(C)=O)n(CCCC)c1=O [formula (I) R^1=C4H9 R^2=C4H9 X=-(CH2)4-, 1,3-di-n-butyl-7-(5-oxohexyl)xanthine]
4.60	CCCCn1c(=O)c2c(ncn2CCC(C)=O)n(CCCC)c1=O [formula (I) R^1=C4H9 R^2=C4H9 X=-(CH2)2-, 1,3-di-n-butyl-7-(3-oxobutyl) xanthine]
5.21	CC(=O)Cn1cnc2c1c(=O)n(C(C)C)c(=O)n2C(C)C [1,3-di-iso-propyl-7-(2-oxopropyl) xanthine]
4.57	CCCn1c(=O)c2c(ncn2CCC(C)=O)n(CCC)c1=O [formula (I) R^1=C3H7 R^2=C3H7 X=-(CH2)2-]
5.48	CCCCn1c(=O)c2c(ncn2CC(C)=O)n(CCCC)c1=O [formula (I) R^1=C4H9 R^2=C4H9 X=-CH2-, 1,3-di-n-butyl-7-(2-oxopropyl) xanthine]
4.92	CCCCn1c(=O)c2c(ncn2CCC(C)=O)n(CC)c1=O [formula (I) R^1=C4H9 R^2=C2H5 X=-(CH2)2-, 1-n-butyl 3-ethyl-7-(3-oxobutyl) xanthine]
5.70	CCCCn1c(=O)c2c(ncn2CC(C)=O)n(CCC)c1=O [formula (I) R^1=C4H9 R^2=C3H7 X=-CH2-, 1-n-butyl 3-n-propyl-7-(2-oxopropyl) xanthine]
4.68	CCCCn1c(=O)c2c(ncn2CC(C)=O)n(CC)c1=O [formula (I) R^1=C4H9 R^2=C2H5 X=-CH2-]
4.61	CCCCn1c(=O)c2c(ncn2C(C)C(C)=O)n(CC)c1=O (centres unmarked)
4.41	CCCCn1c(=O)c2c(ncn2CCCC(C)=O)n(CCCC)c1=O [formula (I) R^1=C4H9 R^2=C4H9 X=-(CH2)3-]
4.52	CCCCn1c(=O)c2c(ncn2C(C)C(C)=O)n(CCCC)c1=O (centres unmarked)
4.76	CCCCn1c(=O)c2c(ncn2C(C)CC(C)=O)n(CCCC)c1=O (centres unmarked)

same assay, conditions: compounds of formula (II); homogenates of rat gastocnemius muscle; 0.31 uM cyclic AMP as substrate; Dixon plot extrapolation; read-out: Apparent Ki Value

pKi	Structure (SMILES)
5.60	CCCCn1c(=O)c2c(ncn2CC(C)=O)n(CCCC)c1=S [1,3-di-n-butyl-7-(2-oxopropyl)-2-thioxanthine]
4.64	CCCCn1c(=S)c2c(ncn2CCC(C)=O)n(CC)c1=O
4.39	CCCCn1c(=S)c2c(ncn2CC(C)=O)n(CC)c1=O

same assay, conditions: compounds of formula (III); homogenates of rat gastocnemius muscle; 0.31 uM cyclic AMP as substrate; Dixon plot extrapolation; read-out: Apparent Ki value

pKi	Structure (SMILES)
4.14	CCn1c(=O)c2c(ncn2CC2(C)OCCO2)n(CC)c1=O
4.35	CCCCn1c(=O)c2c(ncn2CC2(C)OCCO2)n(CC)c1=O
4.57	CCCCn1c(=O)c2c(ncn2CC(C)(OC)OC)n(CCCC)c1=O [1,3-di-n-butylxanthin-7-yl propan-2-one, dimethyl ketal]
4.54	CCCCn1c(=O)c2c(ncn2CC2(C)OCCO2)n(CCCC)c1=O [2-methyl-2-[(1,3-di-n-butylxanthin-7-yl)methyl]-1,3-di oxolane]

same assay, conditions: compounds of formula (V); homogenates of rat gastocnemius muscle; 0.31 uM cyclic AMP as substrate; Dixon plot extrapolation; read-out: Apparent Ki value

pKi	Structure (SMILES)
5.41	CCCCn1c(=O)n(CCCCC(C)=O)c(=O)c2c1ncn2CC(C)=O [formula (V) R^12=C4H9, 1-(5-oxohexyl)-3-n-butyl-7-(2-oxopropyl) xanthine]

— EP0195496A2, “Use of xanthines in the treatment of proliferative skin disease” (BEECHAM GROUP PLC, priority 1985, dated 1986)
